The values below come from patent publication US20240197682A1, “METHOD FOR TREATING NEUROLOGICAL DISEASES USING SUPRAMOLECULE POLYMER THERAPEUTICS” (The Regents of the University of California, priority 2022, published 2024).

A short description of the series: Parallel Artificial Membrane Permeability Assay (PAMPA). Type of series: in vitro ADME. Conditions: for PAMPA: P_app: 200 uM test compound, 4 hr; for Papp at 4 hr, 200 uM: PAMPA, read-out: PAMPA: P_app. The procedure:
5 uL of 1% lecithin (VWR 0579) dissolved in n-dodecane (Sigma Aldrich D221104) was applied to each well of a MultiScreen IP PAMPA filter plate (Millipore MAIPSWU10) and allowed to equilibrate for 5 minutes. 300 uL of PBS was added to the acceptor plate and 150 uL of 200 uM test compound dissolved in PBS and 30% ethanol was added to the donor wells before incubating the donor plate in the acceptor plate for 4 hr at 500 rpm. 100 uL was sampled from the donor and acceptor wells and the concentrations were measured by liquid chromatography-mass spectrometry (SCIEX 4500) or UV-VIS plate reader (BMG).
(The PAMPA barrier holds no transporters, so it reflects passive diffusion.)

Like-named read-outs stand apart in the source and are kept apart here.

As to `O=C(Nc1ncc2c(-c3ccccc3)nn(-c3ccccc3)c2n1)C1CC1` [Compound 275], the “PAMPA: P_app” value came out at 0.8 ×10e−6 cm/sec (pH 5.0) and 1.3 ×10e−6 cm/sec (pH 7.4).
Turning to `CC1CCc2cn(-c3nc(-c4ccccc4)oc3-c3ccc(F)cc3)c(=O)nc2O1` (centres unmarked) [Compound 92, 3-(5-(4-fluorophenyl)-2-phenyloxazol-4-yl)-7-methyl-3,5,6,7-tetrahydro-2H-pyrano[2,3-d]pyrimidin-2-one], the apparent permeability (Papp) (usually the rate of passage across a membrane or cell layer, normalised by area and donor concentration) at 4 hr, 200 uM (pH 7.4, 200 uM test compound) was 1.46 ×10⁻⁶ cm/s.
Take `CC(=O)Nc1ncc2c(-c3ccc(F)cc3)nn(Cc3ccccc3)c2n1` [Compound 263, N-(1-benzyl-3-(4-fluorophenyl)-1H-pyrazolo[3,4-d]pyrimidin-6-yl)acetamide]: the apparent permeability (Papp) at 4 hr, 200 uM by setting is: (pH 5.0, 200 uM test compound) 17.9 ×10⁻⁶ cm/s; (pH 7.4, 200 uM test compound) 20.7 ×10⁻⁶ cm/s.
In the case of `CNC(=O)c1ncc2c(-c3ccnc(C(F)(F)F)n3)nn(-c3ccc(Cl)cc3)c2n1` [Compound 37, 1-(4-chlorophenyl)-N-methyl-3-(2-(trifluoromethyl)pyrimidin-4-yl)-1H-pyrazolo[3,4-d]pyrimidine-6-carboxamide], the Papp at 4 hr, 200 uM (pH 5.0, 200 uM test compound) was above 50 ×10⁻⁶ cm/s. Further, the “PAMPA: P_app” value (pH 7.4) is above 50.0 ×10e−6 cm/sec.
Consider `CNc1nc(=O)n(-c2nc(-c3cccc(Cl)c3)oc2-c2ccc(Cl)c(F)c2)cc1F` [Compound 1], for which the “PAMPA: P_app” value is given as above 50.0 ×10e−6 cm/sec (pH 5.0) and above 50.0 ×10e−6 cm/sec (pH 7.4).
Take `CNC(=O)c1ncc2c(-c3cc(F)cc(F)c3)nn(Cc3ccccc3)c2n1` [Compound 252]: the “PAMPA: P_app” value was above 50 ×10e−6 cm/sec (pH 5.0) and above 50 ×10e−6 cm/sec (pH 7.4).
With `O=c1nc2c(ccn2C2CC2)cn1-c1nc(-c2cnc(C3CC3)nc2)oc1-c1ccc(Cl)c(F)c1` [Compound 186, 3-[5-(4-chloro-3-fluorophenyl)-2-(2-cyclopropylpyrimidin-5-yl)-1,3-oxazol-4-yl]-7-cyclopropyl-2H,3H,7H-pyrrolo[2,3-d]pyrimidin-2-one], the apparent permeability (Papp) at 4 hr, 200 uM (pH 7.4, 200 uM test compound) came to 6.27 ×10⁻⁶ cm/s.
For the compound `CNC(=O)c1cc2c(-c3ccccc3)nn(-c3ccccc3)c2o1` [Compound 38, N-methyl-1,3-diphenyl-1H-furo[2,3-c]pyrazole-5-carboxamide], the Papp at 4 hr, 200 uM runs as follows: (pH 5.0, 200 uM test compound) 46.1 ×10⁻⁶ cm/s; (pH 7.4, 200 uM test compound) above 50 ×10⁻⁶ cm/s.
For the compound `CNC(=O)c1cc2c(NC(=O)C3CC3)nn(-c3ccccc3)c2s1` [Compound 3, 3-(cyclopropanecarboxamido)-N-methyl-1-phenyl-1H-thieno[2,3-c]pyrazole-5-carboxamide], the apparent permeability coefficient (Papp) at 4 hr, 200 uM (pH 5.0, 200 uM test compound) is above 50 ×10⁻⁶ cm/s. Further, the “PAMPA: P_app” value (pH 7.4) is on record as above 50.0 ×10e−6 cm/sec.
As for `CNc1nc(=O)n(-c2nc(-c3cccc(C)c3)oc2-c2ccc(Cl)c(F)c2)cc1F` [Compound 83, 1-(5-(4-chloro-3-fluorophenyl)-2-(m-tolyl)oxazol-4-yl)-5-fluoro-4-(methylamino)pyrimidin-2(1H)-one], the Papp at 4 hr, 200 uM runs as follows: (pH 5.0, 200 uM test compound) 40.3 ×10⁻⁶ cm/s; (pH 7.4, 200 uM test compound) above 50 ×10⁻⁶ cm/s.
As to `O=c1nc2c(ccn2C(F)(F)F)cn1-c1nc(N2CC(F)C2)oc1-c1ccc(F)cc1` [Compound 239], under “pH 7.4”, the “PAMPA: P_app” value is on record as 0.664 ×10e−6 cm/sec.
Regarding `O=c1nc2c(ccn2C(F)(F)F)cn1-c1nc(N2CCCC2)oc1-c1ccc(F)cc1` [Compound 238, 3-[5-(4-fluorophenyl)-2-(pyrrolidin-1-yl)-1,3-oxazol-4-yl]-7-(trifluoromethyl)-2H,3H,7H-pyrrolo[2,3-d]pyrimidin-2-one], where the note is “pH 7.4, 200 uM test compound”, the Papp at 4 hr, 200 uM was 2.28 ×10⁻⁶ cm/s.
As for `CC(=O)Nc1ncc2c(-c3ccccc3)nn(-c3cccnc3)c2n1` [Compound 276, N-(3-phenyl-1-(pyridin-3-yl)-1H-pyrazolo[3,4-d]pyrimidin-6-yl)acetamide], the Papp at 4 hr, 200 uM (pH 5.0, 200 uM test compound) is above 50 ×10⁻⁶ cm/s. For the setting “pH 7.4”, the “PAMPA: P_app” value was above 50 ×10e−6 cm/sec.
As to `CNC(=O)c1ncc2c(-c3ccccc3)nn(Cc3cccc(F)c3)c2n1` [Compound 249], the “PAMPA: P_app” value reads like this: (pH 5.0) 47.1 ×10e−6 cm/sec; (pH 7.4) above 50 ×10e−6 cm/sec.
On to `CC(=O)Nc1ncc2c(-c3ccccc3)nn(-c3ccccc3)c2n1` [Compound 272, N-(1,3-diphenyl-1H-pyrazolo[3,4-d]pyrimidin-6-yl)acetamide], for which the apparent permeability (Papp) at 4 hr, 200 uM runs as follows: (pH 5.0, 200 uM test compound) 8.8 ×10⁻⁶ cm/s; (pH 7.4, 200 uM test compound) 8.9 ×10⁻⁶ cm/s.
